This is an account of results in patent US6730693B2, “Double salts of fumaric acid with a carnitine and an amino acid and food supplements, dietary supplements and drugs containing same” (Sigma-Tau Industrie Farmaceutiche Riunite S.p.A., priority 2000, dated 2004).

Data set [1] can be described thus: Weight increase and appearance after exposure to relative humidity (hygroscopicity test). As to conditions: for 24 hours; for Weight increase %: exposure to a relative humidity of 60 ±5% at 25%; for Appearance: exposure to a relative humidity of 60 ±5%. The format is physicochemical.
The nature of data set [2]: Hygroscopicity of the isolated solid as observed on preparation. Type of data set: physicochemical. As to conditions: isolated solid after preparation. On the procedure:
The mixture was then filtered under vacuum and the solid thus obtained was dried in a thermostatic oven at 30° C. overnight.
The mixture was then filtered under vacuum and the solid thus obtained dried in a thermostatic oven at 30° C. overnight.
8 g (0.05 moles) of L-carnitine inner salt, 5.8 g (0.05 moles) of fumaric acid and 6.6 g of L-ornithine were dissolved in 7.5 mL of water at 60° C. and the resulting thick, clear mass was slowly poured into a solution of acetone (800 mL) under vigorous mechanical stirring.

Counter-ions that a name gives are not always drawn.

For `C[N+](C)(C)C[C@H](O)CC(=O)[O-]` [L-carnitine inner salt], in data set [1], the Weight increase % is 19% and the Appearance entry is recorded as “deliquescent”.
Turning to `CC(C)CC(=O)O[C@H](CC(=O)[O-])C[N+](C)(C)C` [Isovaleryl L-carnitine inner salt], in data set [1], the Weight increase % is listed as 20% and the Appearance result was “deliquescent”.
For “isovaleryl L-carnitine and lysine fumarate”, the “Hygroscopicity of the solid obtained” value in data set [2] was “non-hygroscopic”.
On the same count and under the same terms, the entry for L-carnitine and lysine fumarate is “non-hygroscopic”.
As to “L-Carnitine and Creatine Fumarate [Ex. 1 (BS/231)]”, in data set [1], the Weight increase % worked out at 0.18% and the Appearance result was “no variation”. Further, in data set [2], the “Hygroscopicity of the solid obtained” value was “non-hygroscopic”.
For `CN(CC(=O)O)C(=N)N` [Anhydrous creatine], in data set [1], the Weight increase % came out at 3% and the Appearance result is listed as “flowable”.
On to `C[N+](C)(C)C[C@H](O)CC(=O)[O-].O=C(O)/C=C/C(=O)O` [L-carnitine fumarate], for which the “Hygroscopicity of the solid obtained” value in data set [2] was “highly hygroscopic”.
Take “Isovaleryl L-Carnitine and Creatine Fumarate [Ex. 2 (BS/232)]”: in data set [1], the Weight increase % is 0.19% and the Appearance entry is recorded as “no variation”. In addition, in data set [2], the “Hygroscopicity of the solid obtained” value was “non-hygroscopic”.
